{"source": "patent US20080058213A1", "about": "“Benzoxazole Compounds” (priority 2004, published 2008)", "format_in_all_cases": "in vivo", "key": {"[1]": {"system": "barnyard grass (Echinochloa crusgalli)", "experiment": "Weed control test for paddy field (Test Example 1): barnyard grass", "conditions": "paddy pots, treated at 1.0 leaf stage of barnyard grass, examined after 3 weeks", "description": "(§1) Paddy field soil was filled in 1/10,000 are pots, kneaded with adequate amounts of water and chemical fertilizer, seeded with barnyard grass (Echinochloa crusgalli), Monochoria (Monochoria vaginalis), Japanese bulrush (Scirpus juncoides) and flat sedge (Cyperus serotinus), and further transplanted with 2.0 leaf stage of rice plant. The pots were maintained under the water-filled condition to a depth of 3 cm.\n(§2) Wettable powders containing the compounds (1) as identified in Table 1, which were formulated following Production Example 2, were diluted with adequate amount of water and applied to the pots dropwise with pippet at a prescribed dose of the active ingredients per are, at 1.0 leaf stage of the barnyard grass.\n(§3) After placing the pots in a glasshouse which was controlled at an average temperature of 25° C. for 3 weeks, herbicidal effect was examined.\n(§4) Evaluation of the herbicidal effect is shown in the following six grades, by comparing the condition of untreated control and growth inhibition (%): • 0: 0%-less than 20% • 1: 20%-less than 40% • 2: 40%-less than 60% • 3: 60%-less than 80% • 4: 80%-less than 100% • 5: 100%."}, "[2]": {"system": "Monochoria (Monochoria vaginalis)", "experiment": "Weed control test for paddy field (Test Example 1): Monochoria", "conditions": "paddy pots, treated at 1.0 leaf stage of barnyard grass, examined after 3 weeks", "description": "as §1, §2, §3, §4"}, "[3]": {"system": "Japanese bulrush (Scirpus juncoides)", "experiment": "Weed control test for paddy field (Test Example 1): Japanese bulrush", "conditions": "paddy pots, treated at 1.0 leaf stage of barnyard grass, examined after 3 weeks", "description": "as §1, §2, §3, §4"}, "[4]": {"system": "flat sedge (Cyperus serotinus)", "experiment": "Weed control test for paddy field (Test Example 1): flat sedge", "conditions": "paddy pots, treated at 1.0 leaf stage of barnyard grass, examined after 3 weeks", "description": "as §1, §2, §3, §4"}, "[5]": {"system": "rice plant", "experiment": "Weed control test for paddy field (Test Example 1): phytotoxicity to rice plant", "conditions": "paddy pots, treated at 1.0 leaf stage of barnyard grass, examined after 3 weeks", "description": "as §1, §2, §3\nEvaluation of phytotoxicity is shown in the following six grades, as compared with the condition of untreated control: • 0: normal growth • 1: little damaged • 2: low damaged • 3: medium damaged • 4: serious damaged • 5: complete killed."}, "[6]": {"system": "southern crabgrass (Digitaria ciliaris)", "experiment": "Soil treatment test for upland field (Test Example 2): southern crabgrass", "conditions": "soil treatment before germination, examined after 3 weeks", "how_it_was_run": "(§5)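 Grades 0–5 reflect percent growth inhibition compared with untreated pots (20% steps; grade 5 = complete). Treatment is a pre-germination surface soil spray of wettable powder in water, 15 liters per are, followed by 3 weeks' glasshouse growth at about 25° C.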"}, "[7]": {"system": "common lambsquaters (Chenopodium album)", "experiment": "Soil treatment test for upland field (Test Example 2): common lambsquaters", "conditions": "soil treatment before germination, examined after 3 weeks", "how_it_was_run": "as §5"}, "[8]": {"system": "slender amaranth (Amaranthus viridis)", "experiment": "Soil treatment test for upland field (Test Example 2): slender amaranth", "conditions": "soil treatment before germination, examined after 3 weeks", "how_it_was_run": "as §5"}, "[9]": {"system": "common purslane (Portulaca oleracea)", "experiment": "Soil treatment test for upland field (Test Example 2): common purslane", "conditions": "soil treatment before germination, examined after 3 weeks", "how_it_was_run": "as §5"}, "[10]": {"system": "velvetleaf (Abutilon theophrasti)", "experiment": "Soil treatment test for upland field (Test Example 2): velvetleaf", "conditions": "soil treatment before germination, examined after 3 weeks", "how_it_was_run": "as §5"}, "[11]": {"system": "wheat", "experiment": "Soil treatment test for upland field (Test Example 2): phytotoxicity to wheat", "conditions": "soil treatment before germination, examined after 3 weeks"}, "[12]": {"system": "corn", "experiment": "Soil treatment test for upland field (Test Example 2): phytotoxicity to corn", "conditions": "soil treatment before germination, examined after 3 weeks"}, "[13]": {"system": "soybean", "experiment": "Soil treatment test for upland field (Test Example 2): phytotoxicity to soybean", "conditions": "soil treatment before germination, examined after 3 weeks"}, "[14]": {"system": "southern crabgrass", "experiment": "Foliage treatment test for upland field (Test Example 3): southern crabgrass", "conditions": "foliage treatment at 1.0-2.0 leaf stage of southern crabgrass, examined after 3 weeks", "how_it_was_run": "(§6)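 Weeds were sown in compost-soil pots in a 25° C glasshouse. Wettable-powder formulations, diluted in water to the prescribed active-ingredient dose, were sprayed at 15 liters per are when southern crabgrass reached the 1.0-2.0 leaf stage. After 3 weeks, growth inhibition versus untreated control was scored 0 (under 20%) to 5 (100%).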"}, "[15]": {"system": "common lambsquaters", "experiment": "Foliage treatment test for upland field (Test Example 3): common lambsquaters", "conditions": "foliage treatment at 1.0-2.0 leaf stage of southern crabgrass, examined after 3 weeks", "how_it_was_run": "as §6"}, "[16]": {"system": "slender amaranth", "experiment": "Foliage treatment test for upland field (Test Example 3): slender amaranth", "conditions": "foliage treatment at 1.0-2.0 leaf stage of southern crabgrass, examined after 3 weeks", "how_it_was_run": "as §6"}, "[17]": {"system": "common purslane", "experiment": "Foliage treatment test for upland field (Test Example 3): common purslane", "conditions": "foliage treatment at 1.0-2.0 leaf stage of southern crabgrass, examined after 3 weeks", "how_it_was_run": "as §6"}, "[18]": {"system": "velvetleaf", "experiment": "Foliage treatment test for upland field (Test Example 3): velvetleaf", "conditions": "foliage treatment at 1.0-2.0 leaf stage of southern crabgrass, examined after 3 weeks", "how_it_was_run": "as §6"}, "[19]": {"system": "wheat", "experiment": "Foliage treatment test for upland field (Test Example 3): phytotoxicity to wheat", "conditions": "foliage treatment at 1.0-2.0 leaf stage of southern crabgrass, examined after 3 weeks", "how_it_was_run": "(§7)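 Crops sown in compost-mixed soil pots, kept in a glasshouse at 25° C. average. Effect scored after 3 weeks versus untreated control on a 0–5 scale (0 normal growth, 5 complete kill).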"}, "[20]": {"system": "corn", "experiment": "Foliage treatment test for upland field (Test Example 3): phytotoxicity to corn", "conditions": "foliage treatment at 1.0-2.0 leaf stage of southern crabgrass, examined after 3 weeks", "how_it_was_run": "as §7"}, "[21]": {"system": "soybean", "experiment": "Foliage treatment test for upland field (Test Example 3): phytotoxicity to soybean", "conditions": "foliage treatment at 1.0-2.0 leaf stage of southern crabgrass, examined after 3 weeks", "how_it_was_run": "as §7"}}, "data": [{"smiles": "CCOC/C(=C\\c1cccc(C(F)(F)F)c1)c1nc2cc(Cl)ccc2o1", "note": "[Compound 11]", "values": [{"measurement": "Herbicidal Effect Barnyard grass", "setting": "[1]; dose 2.5 g ai/a", "value": "5 (100%)"}, {"measurement": "Herbicidal Effect Barnyard grass", "setting": "[1]; dose 5 g ai/a", "value": "5 (100%)"}, {"measurement": "Herbicidal Effect Monochoria vaginalis", "setting": "[2]; dose 2.5 g ai/a", "value": "5 (100%)"}, {"measurement": "Herbicidal Effect Monochoria vaginalis", "setting": "[2]; dose 5 g ai/a", "value": "5 (100%)"}, {"measurement": "Herbicidal Effect Japanese bulrush", "setting": "[3]; dose 2.5 g ai/a", "value": "4 (80%-less than 100%)"}, {"measurement": "Herbicidal Effect Japanese bulrush", "setting": "[3]; dose 5 g ai/a", "value": "5 (100%)"}, {"measurement": "Herbicidal Effect Flat sedge", "setting": "[4]; dose 2.5 g ai/a", "value": "3 (60%-less than 80%)"}, {"measurement": "Herbicidal Effect Flat sedge", "setting": "[4]; dose 5 g ai/a", "value": "5 (100%)"}, {"measurement": "Phytotoxicity Rice plant", "setting": "[5]; dose 2.5 g ai/a", "value": 1}, {"measurement": "Phytotoxicity Rice plant", "setting": "[5]; dose 5 g ai/a", "value": 1}, {"measurement": "Herbicidal Effect southern crabgrass", "setting": "[6]; dose 2.5 g ai/a", "value": "5 (100%)"}, {"measurement": "Herbicidal Effect southern crabgrass", "setting": "[6]; dose 5 g ai/a", "value": "5 (100%)"}, {"measurement": "Herbicidal Effect common lambsquaters", "setting": "[7]; dose 2.5 g ai/a", "value": "5 (100%)"}, {"measurement": "Herbicidal Effect common lambsquaters", "setting": "[7]; dose 5 g ai/a", "value": "5 (100%)"}, {"measurement": "Herbicidal Effect slender amaranth", "setting": "[8]; dose 2.5 g ai/a", "value": "5 (100%)"}, {"measurement": "Herbicidal Effect slender amaranth", "setting": "[8]; dose 5 g ai/a", "value": "5 (100%)"}, {"measurement": "Herbicidal Effect common purslane", "setting": "[9]; dose 2.5 g ai/a", "value": "5 (100%)"}, {"measurement": "Herbicidal Effect common purslane", "setting": "[9]; dose 5 g ai/a", "value": "5 (100%)"}, {"measurement": "Herbicidal Effect velvetleaf", "setting": "[10]; dose 2.5 g ai/a", "value": "3 (60%-less than 80%)"}, {"measurement": "Herbicidal Effect velvetleaf", "setting": "[10]; dose 5 g ai/a", "value": "4 (80%-less than 100%)"}, {"measurement": "Phytotoxicity wheat", "setting": "[11]; dose 2.5 g ai/a", "value": 0}, {"measurement": "Phytotoxicity wheat", "setting": "[11]; dose 5 g ai/a", "value": 0}, {"measurement": "Phytotoxicity corn", "setting": "[12]; dose 2.5 g ai/a", "value": 1}, {"measurement": "Phytotoxicity corn", "setting": "[12]; dose 5 g ai/a", "value": 1}, {"measurement": "Phytotoxicity soybean", "setting": "[13]; dose 2.5 g ai/a", "value": 0}, {"measurement": "Phytotoxicity soybean", "setting": "[13]; dose 5 g ai/a", "value": 0}, {"measurement": "Herbicidal Effect southern crabgrass", "setting": "[14]; dose 2.5 g ai/a", "value": "5 (100%)"}, {"measurement": "Herbicidal Effect southern crabgrass", "setting": "[14]; dose 5 g ai/a", "value": "5 (100%)"}, {"measurement": "Herbicidal Effect Common lambsquatters", "setting": "[15]; dose 2.5 g ai/a", "value": "5 (100%)"}, {"measurement": "Herbicidal Effect Common lambsquatters", "setting": "[15]; dose 5 g ai/a", "value": "5 (100%)"}, {"measurement": "Herbicidal Effect slender amaranth", "setting": "[16]; dose 2.5 g ai/a", "value": "5 (100%)"}, {"measurement": "Herbicidal Effect slender amaranth", "setting": "[16]; dose 5 g ai/a", "value": "5 (100%)"}, {"measurement": "Herbicidal Effect common purslane", "setting": "[17]; dose 2.5 g ai/a", "value": "5 (100%)"}, {"measurement": "Herbicidal Effect common purslane", "setting": "[17]; dose 5 g ai/a", "value": "5 (100%)"}, {"measurement": "Herbicidal Effect velvetleaf", "setting": "[18]; dose 2.5 g ai/a", "value": "5 (100%)"}, {"measurement": "Herbicidal Effect velvetleaf", "setting": "[18]; dose 5 g ai/a", "value": "5 (100%)"}, {"measurement": "Phytotoxicity wheat", "setting": "[19]; dose 2.5 g ai/a", "value": 1}, {"measurement": "Phytotoxicity wheat", "setting": "[19]; dose 5 g ai/a", "value": 1}, {"measurement": "Phytotoxicity corn", "setting": "[20]; dose 2.5 g ai/a", "value": 2}, {"measurement": "Phytotoxicity corn", "setting": "[20]; dose 5 g ai/a", "value": 1}, {"measurement": "Phytotoxicity soybean", "setting": "[21]; dose 2.5 g ai/a", "value": 2}, {"measurement": "Phytotoxicity soybean", "setting": "[21]; dose 5 g ai/a", "value": 1}]}]}
